Measured values from PubChem BioAssay (NCI).
Values joined by “and” are separate entries in the source; they are usually repeats but may differ in a detail not shown here. Identical values can stand only once.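 Briefly, cells in 96-well plates were exposed to five compound concentrations for 48 h, and endpoints were estimated by linear interpolation. The concentration for 50% growth inhibition is given as GI50. TGI marks complete inhibition of growth.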

Columns and labels:
Test in all cases: NCI-60 cell line screen, 48 h
[1] = test system: A498 renal
[2] = test system: CCRF-CEM leukemia
[3] = test system: MDA-MB-231 breast
[4] = test system: 786-0 renal
[5] = test system: SK-OV-3 ovarian
[6] = test system: SK-MEL-28 melanoma
[7] = test system: OVCAR-8 ovarian
[8] = test system: HCT-15 colon
[9] = test system: KM12 colon
[10] = test system: DU-145 prostate

CN(CCCCCl)P(=O)(OCc1ccc([N+](=O)[O-])o1)OCC1OC(n2cc([N+](=O)[O-])c(=O)[nH]c2=O)CC1O (stereo unspecified)
GI50 [1]: 29600 nM | TGI [1]: > 100 µM | GI50 [2]: 66800 nM | TGI [2]: > 100 µM | GI50 [3]: > 100000 nM | TGI [3]: > 100 µM | GI50 [4]: 12700 nM | TGI [4]: > 100 µM | GI50 [5]: 96400 nM | TGI [5]: > 100 µM | GI50 [6]: 45900 nM | TGI [6]: > 100 µM | GI50 [7]: 41600 nM | TGI [7]: > 100 µM | GI50 [8]: > 100000 nM | TGI [8]: > 100 µM | GI50 [9]: > 100000 nM | TGI [9]: > 100 µM | GI50 [10]: > 100000 nM | TGI [10]: > 100 µM

CCC(=O)Nc1nnc(Cc2ccc(OC)c(OC)c2)s1
GI50 [1]: > 100000 nM | TGI [1]: > 100 µM | GI50 [2]: > 100000 nM | TGI [2]: > 100 µM | GI50 [3]: > 100000 nM | TGI [3]: > 100 µM | GI50 [4]: > 100000 nM | TGI [4]: > 100 µM | GI50 [5]: > 100000 nM | TGI [5]: > 100 µM | GI50 [6]: > 100000 nM | TGI [6]: > 100 µM | GI50 [7]: > 100000 nM | TGI [7]: > 100 µM | GI50 [8]: > 100000 nM | TGI [8]: > 100 µM | GI50 [9]: > 100000 nM | TGI [9]: > 100 µM | GI50 [10]: > 100000 nM | TGI [10]: > 100 µM

C=CCSC(C)=O
TGI [1]: > 100 µM | TGI [2]: > 100 µM | TGI [3]: > 100 µM | TGI [4]: > 100 µM | TGI [5]: > 100 µM | TGI [6]: > 100 µM | TGI [7]: > 100 µM | TGI [8]: > 100 µM | TGI [9]: > 100 µM | TGI [10]: > 100 µM

COc1ccc2nc3ccccc3c(NCCNCC(C)O)c2c1 (stereo unspecified)
GI50 [1]: 73.4 nM | TGI [1]: 0.73 µM | GI50 [2]: 436 nM | TGI [2]: 3.47 µM | GI50 [3]: 310 nM | TGI [3]: 1.85 µM | GI50 [4]: 306 nM | TGI [4]: 1.83 µM | GI50 [5]: 612 nM | TGI [5]: 9.12 µM | GI50 [6]: 539 nM | TGI [6]: 2.77 µM | GI50 [7]: 441 nM | TGI [7]: 11.9 µM | GI50 [8]: 461 nM | TGI [8]: 10.6 µM | GI50 [9]: 536 nM | TGI [9]: 14.2 µM | GI50 [10]: 516 nM | TGI [10]: 14.7 µM

Cc1cc(N2CCOCC2)nc(NCc2cc(Nc3ccnc4cc(Cl)ccc34)ccc2F)n1
GI50 [1]: 894 nM | TGI [1]: 2.25 µM | GI50 [2]: 1460 nM | TGI [2]: 4.79 µM | GI50 [3]: 1880 nM | TGI [3]: 3.63 µM | GI50 [4]: 1830 nM | TGI [4]: 3.35 µM | GI50 [5]: 1920 nM | TGI [5]: 3.48 µM | GI50 [6]: 1830 nM | TGI [6]: 3.4 µM | GI50 [7]: 1860 nM | TGI [7]: 3.58 µM | GI50 [8]: 1700 nM | TGI [8]: 3.3 µM | GI50 [9]: 1690 nM | TGI [9]: 3.21 µM | GI50 [10]: 1600 nM | TGI [10]: 3.08 µM

COc1cc(C(=O)n2nc(N)c3c(C)cc(C)nc32)cc(OC)c1OC
GI50 [1]: > 20800 nM | TGI [1]: > 100 µM | GI50 [2]: > 89200 nM | TGI [2]: > 100 µM | GI50 [3]: > 100000 nM | TGI [3]: > 100 µM | GI50 [4]: > 100000 nM | TGI [4]: > 100 µM | GI50 [5]: > 82400 nM | TGI [5]: > 100 µM | GI50 [6]: > 100000 nM | TGI [6]: > 100 µM | GI50 [7]: > 100000 nM | TGI [7]: > 100 µM | GI50 [8]: 1380 nM | TGI [8]: > 100 µM | GI50 [9]: 10400 nM | TGI [9]: > 100 µM | GI50 [10]: > 100000 nM | TGI [10]: > 100 µM

CNc1cc(-c2cccc(OC(F)(F)F)c2)nc2ccc(N3CCCC3)cc12
GI50 [1]: 1170 nM and 1610 nM and 1660 nM | TGI [1]: 2.41 µM and 3 µM and 3.08 µM | GI50 [2]: 2020 nM and 1960 nM and 1760 nM | TGI [2]: 4.52 µM and 4.49 µM and 4.01 µM | GI50 [3]: 1720 nM and 1700 nM and 1460 nM | TGI [3]: 3.23 µM and 3.14 µM and 2.95 µM | GI50 [4]: 1560 nM and 1710 nM and 1550 nM | TGI [4]: 2.91 µM and 3.22 µM and 2.97 µM | GI50 [5]: 1660 nM and 1670 nM and 1740 nM | TGI [5]: 3.04 µM and 3.03 µM and 3.14 µM | GI50 [6]: 1640 nM and 1780 nM and 1670 nM | TGI [6]: 3.03 µM and 3.2 µM and 3.06 µM | GI50 [7]: 1800 nM and 1810 nM and 1820 nM | TGI [7]: 3.5 µM and 3.39 µM and 3.55 µM | GI50 [8]: 860 nM and 1160 nM and 1300 nM | TGI [8]: 2.35 µM and 2.54 µM and 2.8 µM | GI50 [9]: 1810 nM and 1760 nM and 1890 nM | TGI [9]: 3.4 µM and 3.35 µM and 3.51 µM | GI50 [10]: 1610 nM and 1840 nM and 1880 nM | TGI [10]: 3.12 µM and 3.5 µM and 3.4 µM

O=C1C=CC(=O)c2c1nc(CBr)[nH]c2=O
TGI [1]: > 100 µM | TGI [3]: > 100 µM | TGI [4]: > 100 µM | TGI [5]: > 100 µM | TGI [6]: > 100 µM | TGI [7]: > 100 µM | TGI [8]: > 100 µM | TGI [9]: > 100 µM | TGI [10]: > 100 µM

CCCCCCCCN=C(NCCCCCCCC)SCc1cccc2ccccc12
GI50 [1]: 1520 nM | TGI [1]: 2.9 µM | GI50 [2]: 2350 nM | TGI [2]: 9.69 µM | GI50 [3]: 1140 nM | TGI [3]: 2.55 µM | GI50 [4]: 1240 nM | TGI [4]: 2.7 µM | GI50 [6]: 1950 nM | TGI [6]: 3.44 µM | GI50 [7]: 1640 nM | TGI [7]: 3.11 µM | GI50 [8]: 1190 nM | TGI [8]: 3.09 µM | GI50 [9]: 1680 nM | TGI [9]: 3.19 µM | GI50 [10]: 1800 nM | TGI [10]: 3.29 µM

COc1cc(C2NC(=O)C(C#N)=C(Nc3cccc(C)c3)S2)ccc1O (stereo unspecified)
GI50 [1]: > 100000 nM | TGI [1]: > 100 µM | GI50 [2]: > 100000 nM | TGI [2]: > 100 µM | GI50 [3]: > 100000 nM | TGI [3]: > 100 µM | GI50 [4]: > 100000 nM | TGI [4]: > 100 µM | GI50 [5]: > 100000 nM | TGI [5]: > 100 µM | GI50 [6]: > 100000 nM | TGI [6]: > 100 µM | GI50 [7]: > 100000 nM | TGI [7]: > 100 µM | GI50 [8]: > 100000 nM | TGI [8]: > 100 µM | GI50 [9]: > 100000 nM | TGI [9]: > 100 µM | GI50 [10]: > 100000 nM | TGI [10]: > 100 µM

COc1cc(-c2ccc[nH]2)[nH]c1/C=C1\N=C(C)C(CC(=O)OCC(C)(C)C)=C1C
GI50 [1]: 163 nM | TGI [1]: 0.867 µM | GI50 [2]: 62.5 nM | TGI [2]: 2.12 µM | GI50 [3]: 104 nM | TGI [3]: 1.53 µM | GI50 [4]: 300 nM | TGI [4]: 1.53 µM | GI50 [5]: 442 nM | TGI [5]: 2.02 µM | GI50 [6]: 305 nM | TGI [6]: 1.34 µM | GI50 [7]: 321 nM | TGI [7]: 1.44 µM | GI50 [8]: 211 nM | TGI [8]: 1.12 µM | GI50 [9]: 267 nM | TGI [9]: 1.76 µM | GI50 [10]: 226 nM | TGI [10]: 1.53 µM

C=C(C)C(=O)Nc1ccc(-c2c(-c3ccc(Oc4nccc(C)n4)c(F)c3)c3c(N)ncnc3n2C)cc1
GI50 [1]: 1720 nM | TGI [1]: 9.88 µM | GI50 [2]: 5250 nM | TGI [2]: > 100 µM | GI50 [3]: 3570 nM | TGI [3]: 22.2 µM | GI50 [4]: 2430 nM | TGI [4]: 30.6 µM | GI50 [5]: 14700 nM | TGI [5]: 69.2 µM | GI50 [6]: 4380 nM | TGI [6]: 17.6 µM | GI50 [7]: 4490 nM | TGI [7]: 19.2 µM | GI50 [8]: 3110 nM | TGI [8]: 13.5 µM | GI50 [9]: 3870 nM | TGI [9]: 17 µM | GI50 [10]: 3860 nM | TGI [10]: 15.3 µM

Cn1c(I)c(C#C[Si](C)(C)C)c(=O)[nH]c1=O
GI50 [1]: 16400 nM | TGI [1]: 30.2 µM | GI50 [2]: 1740 nM | TGI [2]: 3.65 µM | GI50 [3]: 2500 nM | TGI [3]: 7.25 µM | GI50 [4]: 16400 nM | TGI [4]: 30.4 µM | GI50 [5]: 17200 nM | TGI [5]: 30.9 µM | GI50 [6]: 1660 nM | TGI [6]: 3.12 µM | GI50 [7]: 12100 nM | TGI [7]: 25.6 µM | GI50 [8]: 1830 nM | TGI [8]: 3.64 µM | GI50 [9]: 16800 nM | TGI [9]: 32.4 µM | GI50 [10]: 4110 nM | TGI [10]: 15.1 µM

CSc1ccc(C(=O)/C=C/c2ccc(Cl)cc2Cl)cc1
GI50 [1]: 20300 nM | TGI [1]: 51.3 µM | GI50 [3]: 27700 nM | TGI [3]: 86.9 µM | GI50 [4]: 16900 nM | TGI [4]: 36.2 µM | GI50 [7]: 20300 nM | TGI [7]: 43.4 µM | GI50 [8]: 29800 nM | TGI [8]: 97.7 µM | GI50 [9]: 22200 nM | TGI [9]: 51.8 µM | GI50 [10]: 25700 nM | TGI [10]: 89.2 µM
